Measured values published in patent US20060154243A1 (priority 2003, published 2006).

Key:
[1] = tested on: serum 1a (individual 1, early serum); assay type: binding, human
[2] = tested on: serum 1b (individual 1, late serum); assay type: binding, human
serum 2 (individual 2) = assay type: binding, human
serum 6 (individual 6) = assay type: binding, human
serum 37 (individual 37) = assay type: binding, human
serum 62 (individual 62) = assay type: binding, human
serum London = assay type: binding, human
serum SARS-yellow = assay type: binding, human
serum SARS-green = assay type: binding, human
[3] = tested on: control serum LUMC (pooled serum of ten healthy hospital workers); assay type: binding, human
[4] = tested on: control serum Blood-bank (commercial negative donor pooled serum); assay type: binding, human
[5] = tested on: rabbit serum obtained by immunizing with SARS-CoV strain Frankfurt 1; assay type: binding
[6] = tested on: sera SARS-green, SARS-yellow, 1a, 1b, 2, 6, 37, 62 and London; assay type: binding, human

Row | Sequence | Binding of serum 1a to linear peptides of Orf14 of SARS-CoV TOR2 [1] | Binding of serum 1b to linear peptides of Orf14 of SARS-CoV TOR2 [2] | Binding of serum 2 to linear peptides of Orf14 of SARS-CoV TOR2 (serum 2 (individual 2)) | Binding of serum 6 to linear peptides of Orf14 of SARS-CoV TOR2 (serum 6 (individual 6)) | Binding of serum 37 to linear peptides of Orf14 of SARS-CoV TOR2 (serum 37 (individual 37)) | Binding of serum 62 to linear peptides of Orf14 of SARS-CoV TOR2 (serum 62 (individual 62)) | Binding of serum London to linear peptides of Orf14 of SARS-CoV TOR2 (serum London) | Binding of serum SARS-yellow to linear peptides of Orf14 of SARS-CoV TOR2 (serum SARS-yellow) | Binding of serum SARS-green to linear peptides of Orf14 of SARS-CoV TOR2 (serum SARS-green) | Control serum LUMC linear peptides [3] | Control serum LUMC looped peptides [3] | Control Serum Blood-Bank Looped peptides [4] | Control serum Blood-bank linear peptides [4] | Rabbit serum linear peptides [5] | Rabbit serum looped peptides [5] | Recognition of the peptide by sera of individuals infected by SARS-CoV, form recognized [6]
1 | EWLAEVVKLPSRYCC | 0.8 | 0.6 | 0.7 | 0.6 | 1.0 | 0.7 | 1.0 | 0.3 | 0.6 | 0.6 | 0.6 | 0.7 | 0.7 |  |  | 
2 | EILLLEWLAEVVKLP | 0.5 | 0.5 | 0.5 | 0.7 | 0.6 | 0.5 | 0.7 | 0.4 | 0.4 | 0.6 | 0.6 | 0.7 | 0.7 |  |  | 
3 | ILLLEWLAEVVKLPS | 0.5 | 0.4 | 0.5 | 0.5 | 0.6 | 0.4 | 0.5 | 0.3 | 0.1 | 0.5 | 0.6 | 0.7 | 0.6 |  |  | 
4 | VAVIQEIQLLAAVGE | 0.5 | 0.4 | 0.3 | 0.4 | 0.5 | 0.3 | 0.3 | 0.2 | 0.3 | 0.3 | 0.6 | 0.6 | 0.3 |  |  | 
5 | TQREAEAAVKPLLAP | 0.4 | 0.2 | 0.4 | 0.4 | 0.4 | 0.3 | 0.4 | 0.2 | 0.3 | 0.4 | 0.7 | 0.8 | 0.4 |  |  | 
6 | REAEAAVKPLLAPHH | 0.5 | 0.3 | 0.4 | 0.3 | 0.5 | 0.3 | 0.4 | 0.2 | 0.1 | 0.3 | 0.6 | 0.7 | 0.2 |  |  | 
7 | LLLEWLAEVVKLPSR | 0.5 | 0.4 | 0.4 | 0.6 | 0.7 | 0.4 | 0.6 | 0.2 | 0.3 | 0.5 | 0.5 | 0.7 | 0.7 |  |  | 
8 | VVAVIQEIQLLAAVG | 0.8 | 0.7 | 0.7 | 1.3 | 0.6 | 0.8 | 1.0 | 0.4 | 0.5 | 1.1 | 0.4 | 0.5 | 1.1 |  |  | 
9 | EIQLLAAVGEILLLE | 0.6 | 0.5 | 0.5 | 0.4 | 0.6 | 0.4 | 0.4 | 0.5 | 0.3 | 0.8 | 0.7 | 0.7 | 0.4 |  |  | 
10 | AVGEILLLEWLAEVV | 0.6 | 0.5 | 0.5 | 0.5 | 0.7 | 0.6 | 0.6 | 0.5 | 0.3 | 0.8 | 0.8 | 0.8 | 0.5 |  |  | 
11 | AAVGEILLLEWLAEV | 0.6 | 0.5 | 0.6 | 0.5 | 0.8 | 0.6 | 0.6 | 0.6 | 0.5 | 0.6 | 0.7 | 0.7 | 0.4 |  |  | 
12 | WFSLEIQDLEEPCTK |  |  |  |  |  |  |  |  |  | 0.5 | 0.5 | 0.7 | 0.6 | 0.0 | 0.4 | recognized in linear and in looped form
13 | MLIIFWFSLEIQDLE |  |  |  |  |  |  |  |  |  | 0.9 | 0.8 | 0.7 | 1.0 | 1.7 | 0.5 | recognized in linear and in looped form
14 | LIIFWFSLEIQDLEE |  |  |  |  |  |  |  |  |  | 0.7 | 0.9 | 0.7 | 0.8 | 0.5 | 0.7 | recognized in linear and in looped form
15 | IFWFSLEIQDLEEPC |  |  |  |  |  |  |  |  |  | 0.7 | 0.8 | 0.8 | 0.8 | 0.3 | 0.5 | recognized in linear and in looped form
